Data from BindingDB's records for doi:10.1016/j.bmcl.2007.01.064 (Vertex Pharmaceuticals, 2007).

Target: T1, Disintegrin and metalloproteinase domain-containing protein 17 [215-477,S266A,N452Q] (Homo sapiens, UniProt P78536, N452Q/S266A)
T1 construct: 215-477
Assay: TACE Inhibition Assay
Conditions: pH 7.5; 22 °C
Description: The compounds were tested for TACE inhibition using fluorescence resonance energy transfer (FRET) assay. TACE catalyzed cleavage of the substrate peptide liberates the fluoropore from the proximity of the adjacent quenching moiety, and an increase in fluorescence signal results.

T1 sequence (P78536 215-477 S266A/N452Q): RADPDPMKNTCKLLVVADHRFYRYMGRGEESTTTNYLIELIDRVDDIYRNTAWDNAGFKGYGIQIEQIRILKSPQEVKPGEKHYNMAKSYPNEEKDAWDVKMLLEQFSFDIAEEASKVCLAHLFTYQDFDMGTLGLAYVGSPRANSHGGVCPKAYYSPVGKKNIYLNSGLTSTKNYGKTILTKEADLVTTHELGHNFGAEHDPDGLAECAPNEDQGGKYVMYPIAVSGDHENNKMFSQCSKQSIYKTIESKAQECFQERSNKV

Ki: 56 nM
SMILES: CC#CCOc1ccc(S(=O)(=O)N(C)CCS)cc1 [4-(but-2-yn-1-yloxy)-N-methyl-N-(2-sulfanylethyl)benzene-1-sulfonamide]
